Series [1] deals with parainfluenza Sendai virus (SV). Put plainly: Sendai virus replication in 37RC cells, virus yield by HAU titration. The format is cell-based. The following applies: for IC50: read-out: ID50 (50% inhibitory dose/concentration). As for the experimental part:
(§1) Monkey kidney 37RC cells were grown at 37° C. under the conditions described above for human lymphoblastoid Jurkat T cells. The parainfluenza Sendai virus (SV) was grown in the allantoic cavity of 10 day-old embryonated eggs. Viral titre was expressed in haemagglutinating units (HAU) per ml; […]. Virus yield at 24 hours after infection was determined in the supernatant of infected cells by HAU titration.
(§2) The ID50 (the 50% inhibitory dose/concentration) value at 24 hours and the TD100 (the dose or concentration at which a tested compound is 100% toxic to uninfected cells, determined visually by microscopy) for both (−)-Δ^12,14-15-deoxy-PG-J2 and for compound CTC-150 were measured and the following results were obtained.

The next series relates to Monkey kidney 37RC cells. It counts as cell-based. The method, then:
as §1, §2

Another series concerns NF-κB. Put plainly: EMSA of NF-κB DNA-binding activity in TPA-stimulated Jurkat T cells. It counts as cell-based, Human. The following applies: for NF-κB inhibition (in words): TPA-stimulated, EMSA. As for the experimental part: (§3) Human lymphoblastoid Jurkat T cells were grown at 37° C. in a 5% CO2 atmosphere in RPM1 1640 medium (GIBCO BRL, Gaithersburg, Md., United States of America) supplemented with 10% fetal calf serum (FCS, Hyclone Europe Ltd, United Kingdom), 2 mM glutamine and antibiotics according to the method described by A. Rossi et al.^48 The test compound was stored as a 100% ethanolic stock solution (100 mM) or in dimethylsulfoxide (100 mM) and diluted to the appropriate concentration in culture medium at the time of use. Cells were treated with different concentrations of test compound for 1 hour and then stimulated with 12-O-tetradecanoylphorbol-13-acetate (TPA, 25 ng/ml), which is a strong inducer of NF-κB. Control cells received an equal amount of control diluent. After 3 hours, whole-cell extracts were prepared and subjected to analysis of DNA-binding activity by EMSA (Electrophoretic Mobility Shift Assay) for detection of HSF or NF-κB activation, according to the method described by A. Rossi et al.^48
(§4) Specificity of protein-DNA complexes was verified by immunoreactivity with polyclonal antibodies specific for p65 (Rel A) or for HSF-1, for NF-κB and HSF respectively. Quantitative evaluation of NF-κB- and HSF-DNA complex formation was determined by Molecular Dynamics PhosphorImager (MDP) analysis and was expressed in arbitrary units, as described by A. Rossi et al.^49 The results for (−)-Δ^12,14-15-deoxy-PG-J2 are shown in FIG. 1.
In general terms: In EMSA bound probe runs differently from free probe, usually more slowly.

For a further series, the system named is HSF. Put plainly: EMSA of HSF DNA-binding activity in TPA-stimulated Jurkat T cells. The format is cell-based, Human. To be noted: 1 hour pre-treatment, TPA 25 ng/ml, extracts after 3 hours. As for the experimental part: as §3, with “After 3 hours, whole-cell extracts were prepared and subjected to analysis of DNA-binding activity by EMSA (Electrophoretic Mobility Shift Assay) for detection of HSF or NF-κB activation, according to the method described by A. Rossi et al.^48” left out
as §4

We go through 2 compounds from US7304186B2, “Synthetic method and novel chemical compounds” (Charterhouse Therapeutics Ltd., priority 2002, dated 2007).

Where two headings read alike, the source gives them in different places.

For `CCCCC/C=C/C=C1/C(=O)C=CC1C/C=C\CCCC(=O)O` (stereo not drawn) [(−)-Δ^12,14-15-deoxy-PG-J2, reference compound], in series [1] (37RC cells, virus yield at 24 hours), the “inhibition of Sendai virus replication (in words)” value is on record as “potent inhibitor of Sendai virus replication”. Further, the IC50 in series [1] (virus yield at 24 hours after infection, 37RC cells, 5 HAU/10^5 cells) was determined as 3000 nM. Moreover, in the series on Monkey kidney 37RC cells (uninfected 37RC cells, visually by microscopy), the “TD100 (concentration at which compound is 100% toxic to uninfected cells)” value was 50 µM. In addition, the “NF-κB inhibition (in words)” value with NF-κB is on record as “potent inhibitor of NF-κB”.

Regarding `CC1C=CC(=O)/C1=C/c1ccccc1` (stereo not shown) [CTC-150, 4-methyl-5-[1-phenyl-meth-(E)-ylidene]-cyclopent-2-enone], the IC50 in series [1] (Respirovirus muris, 24 h) is 700 nM; in the series with NF-κB (Homo sapiens, 1 hour pre-treatment, TPA 25 ng/ml, extracts after 3 hours, read-out: concentration required to give an NF-κB inhibition to 50% of its original level (IC50)) it was 7000 nM. Besides, the “antiviral activity relative to (−)-Δ^12,14-15-deoxy-PG-J2 (times more active)” value in series [1] (ratio of ID50 values, Sendai virus in 37RC cells) is “over 4”. Also, in the series on Monkey kidney 37RC cells (monkey), the “TD100 (concentration at which compound is 100% toxic to uninfected cells)” value was greater than 50 µM. The “concentration required to give an HSF activation to 200% of its original level” value in the series with HSF worked out at 0.02 µM. In the series with NF-κB, the “NF-κB inhibition (in words)” value is on record as “potent inhibitor of NF-κB”.
